Data taken from a melting point compilation (Tetko et al.; mined from patent text by program, amines drawn as free bases though some values may be those of a salt).

Row | SMILES | melting point [°C]
1 | CC(C)(C)c1ccc(C(=O)Nc2cn3cc(-c4cn[nH]c4)ccc3n2)cn1 | 238 to 240
2 | O=C1c2ccccc2NC(=S)C2CCCN12 (configuration not stated) | 268 to 270
3 | Cc1cccc2c(N3CCSCC3)nc(Cl)cc12 | 134 to 136
4 | CC(=O)OCC(=O)Nc1cccc([N+](=O)[O-])c1C#N | 157 to 158
5 | NNc1ccc(Cl)cc1Cl | 90 to 91
6 | CCOC(=O)Cn1cc(Cl)cnc1=O | 175 to 177
7 | COc1cc(Cl)ccc1NC(=O)C(C)(C)C | 66 to 69
8 | CC(CCl)=NNC1=Nc2ccc(Cl)cc2C(c2ccccc2)=NC1 | 210 to 227
9 | O=C(NC1CCC(OC(=O)N2CCC3(CCCC3)CC2)CC1)C1CCN(C(=O)Oc2ccc(Oc3ccccc3)cc2)CC1 (configuration not stated) | 230 to 231
10 | Nc1cc(Cl)cc(C(=O)N[C@@H]2CN3CCC2CC3)c1OCc1cccc(I)c1 | 102 to 104
11 | O=C(O)CCNC(=O)NCCCCC1CCSS1 (configuration not stated) | 108 to 110
12 | CCSc1cc(-c2ccc(Cl)cc2Cl)ccc1C#N | 89 to 92
13 | Cc1nc(SCc2cnccc2C(=O)O)sc1CC(=O)O | 207 to 211
14 | Cc1c(C(F)(F)F)cnn(-c2cc(OCCC3OCCCO3)c(Cl)cc2F)c1=O | 112
15 | O=S(=O)(c1ccc(Cl)cc1)N1CCCC1c1ccc(F)cc1 (racemic) | 118
16 | Cn1nc(N)nc1NCCCO | 139 to 140
17 | N#CC1=C(C2CC2)Nc2n[nH]cc2C1c1cccc(C#N)c1Br (configuration not stated) | > 250
18 | O=S(CCN1C=CC=CC=C1)c1ccccc1 (configuration not stated) | 195
19 | CN(C)C(=O)N=NC(=O)N(C)C | 121 to 122
20 | Cn1c(=O)c2c(Cl)cccc2n2cnc(C(=O)n3ccnc3)c12 | 242 to 243

Row | SMILES | melting point [°C]
21 | C=Cc1cn(-c2c(Cl)cc(C(F)(F)F)cc2Cl)nc1C(F)(F)F | 95 to 98
22 | Cc1c(C(=O)c2cnn(C(C)(C)C)c2O)ccc(S(C)(=O)=O)c1I | 171 to 172
23 | O=C1c2cc(-c3ccc(C(F)(F)F)cc3)ccc2CC1Br (configuration not stated) | 105
24 | OCC1OC(OC2C(CO)OC(CO)C2O)C(O)C(O)C1O (configuration not stated) | 162 to 164
25 | Cc1ccc(C(F)(F)F)c2sc(Sc3ccc4c(c3)CCC3N(C)C(=O)CCC43C)nc12 (single isomer, unassigned; (+)) | 50 to 54
26 | CN(C)C1(c2ccccc2)CCC(CNC(=O)N2CCC(c3c[nH]c4ccccc34)CC2)CC1 (configuration not stated) | 104 to 107
27 | C[C@H]([C@](O)(Cn1cncn1)c1ccc(F)cc1F)S(=O)(=O)N1CCN(c2ccc(C(F)(F)F)cc2)CC1 | 158 to 159
28 | Fc1ccc(Nc2nc(-c3ccc(F)cc3)cs2)cc1 | 127
29 | CC(=O)Nc1nc2c(ncn2COC(COC(C)=O)COC(C)=O)c(=O)[nH]1 | 172
30 | CC1(C)Oc2ccc(C(N)=S)cc2C(Oc2ccnc(O)c2)C1(C)O (configuration not stated) | 142 to 144
31 | CCN(CC)CC(O)CSCC(=O)O (configuration not stated) | 104
32 | CC(O)c1ccc(C(O)(c2ccc3c(c2)c(-c2cccc(Cl)c2)cc(=O)n3C)c2cncn2C)cc1 (configuration not stated) | 181
33 | CCCC1=NN(c2ccc(C(=O)N(CC)CC)cc2)C(=O)C1=CNc1ccccc1CC | 123
34 | CCCCCCCCCCC1COC(=O)N1C(C)=O (configuration not stated) | 51 to 53
35 | CC(=O)OC(C)(N=NC(C)(OC(C)=O)C(C)C)C(C)C (configuration not stated) | 55 to 62
36 | Clc1nc(-n2cnc(-c3ccccc3)c2-c2ccccc2)c2[nH]cnc2n1 | 278
37 | CC(=O)c1cc(-c2ccncc2)sc1N1CCN(C)CC1 | 115 to 117
38 | Nc1cccc(NCCO)c1[N+](=O)[O-] | 129
39 | CN1C(=O)CC[C@]2(C)c3ccc(Sc4nc5c(OC(F)(F)F)cccc5s4)cc3CC[C@@H]12 | 168 to 173
40 | CN(C)C(=O)N[C@H]1CC[C@H](CCN2CCN(c3cccc4c3CCC4)CC2)CC1 | 150 to 152

Row | SMILES | melting point [°C]
41 | CCNc1cccc(C#CCCn2nc3ccccc3n2)n1 | 73 to 78
42 | COc1ccc(C(=O)Nc2c(Cl)cncc2Cl)cc1OC1CCCC1F (configuration not stated) | 167 to 169
43 | Nc1c(-c2cc(Cl)ccc2O)c2cc(C(F)(F)F)ccc2[nH]c1=O | 233 to 235
44 | O=c1nc(Nc2ccc(Cl)cc2)sc2ncccc12 | 278 to 279
45 | Nc1ccncc1C(=NO)c1ccccc1F | 212 to 214
46 | CCc1nc2cc(S(C)(=O)=O)c(Cl)cc2n1-c1ccc(CCOC(=O)NS(=O)(=O)c2ccc(C)cc2)cc1 | 105 to 110
47 | CC(C(=O)O)c1ccc2c(c1)C(c1ccccc1)=NCC(=O)N2 (configuration not stated) | 252 to 255
48 | COc1cc(/C=C/C=O)c([N+](=O)[O-])cc1OC | 103 to 105
49 | NC(=O)c1ncn2c1CN=C(c1ccccc1)c1cc(Cl)ccc1-2 | 295 to 296
50 | CN1CC(=O)NC1=NC(=O)Nc1cccc([N+](=O)[O-])c1 | 182 to 188
51 | CCCCCCCC/C=C\CCCCCCCC(=O)N[C@H]1CCCNC(=O)C1 | 66 to 67
52 | CC(=O)ON=c1c2nccc3cccc(c32)n2cccc12 | 177 to 179
53 | COc1ccc(NC(=O)C(F)F)cn1 | 75 to 78
54 | O=C1CSc2cc(-c3cccc([N+](=O)[O-])c3)ccc2N1 | 290 to 292
55 | CNC(=O)c1ccc(C=CC(=O)O)cc1 | 273
56 | Cc1c(OCC#N)cc2c(c1Cl)C(=O)C1(CCCC1)C2=O | 137 to 139
57 | CCC1(CC)C(=O)N(C(C)(C)C)CC(C)(C)N1C(C)c1ccc(C(C)=O)cc1 (configuration not stated) | 91 to 94
58 | Cc1cncc(C)c1CO | 93 to 95
59 | C=CCNC(=O)N1CC(Oc2ccccn2)C1 | 72 to 76

More lines, now with the values ahead:

Row | melting point [°C] | SMILES
60 | 92 to 93.5 | CCOC(=O)Cc1cc(C)c(C(=O)c2ccc(Cl)c(Cl)c2)n1C
61 | 106 to 107 | COC(=O)c1cc2cc(COc3cccnc3)ccc2s1
62 | 104 | COc1ccc(Cl)cc1C(=O)NCc1ccc(-c2ccc(OC(C)(C)C(=O)O)cc2)cc1
63 | 102 to 104 | CCCC(=O)c1c[nH]c2c(OC)cc(OC(=O)c3ccccc3)cc2c1=O
64 | 71 to 72 | CC(=O)OCc1ccc(-c2ccccc2)cn1
65 | 80 | COc1ccc2[nH]cc(CCC(=O)O)c2c1
66 | 220 to 224 | N#Cc1cccc(CCn2ncc3c(=O)n(-c4ccccc4)c4ncccc4c32)c1
67 | 123 to 124 | COc1ccc(C2Sc3c(ccc4ccccc34)N(CCCN(C)C)C(=O)C2O)cc1 (configuration not stated)
68 | 151 to 154 | O=C(Nc1ccccc1Nc1ccnc2c(NC(=O)c3c(Cl)cccc3Cl)cccc12)c1cccnc1
69 | 125 to 128 | O=C(N[C@@H](CCO)C(=O)O)OCc1ccccc1
70 | 163 to 166 | CC(C)(C)OC(=O)NCCc1c[nH]c2ccc(Oc3ccccc3)c(Cl)c12
71 | 187 to 188 | ON=Cc1ccc(-c2ccc(O)c(F)c2)c2ccccc12
72 | 142 to 144 | CS(=O)(=O)c1ccc(-c2cc(C(=O)CCCO[N+](=O)[O-])nn2-c2ccccc2)cc1
73 | 207 to 209 | CCOC(=O)c1ccc(NC(=O)C=C(c2ccc(Cl)cc2)c2ccc(Cl)cc2)cc1
74 | 180 to 181 | Cc1ccc(S(=O)(=O)NC(Cc2ccccc2)C(=O)Nc2c(F)cc(F)cc2F)cc1 (configuration not stated)
75 | 223 | CCCc1ncc(/C=C(\Cc2cccs2)C(=O)O)n1Cc1ccccc1[N+](=O)[O-]
76 | 229 to 230 | CCc1cn(C2CC(O)C(CCC(=O)Cc3c(Cl)cccc3Cl)O2)c(=O)[nH]c1=O (configuration not stated)
77 | 250 to 255 | COc1ccc2[nH]c(C(=O)N3CC(CCl)c4c3cc(N)c3ccccc43)cc2c1 (configuration not stated)
78 | 103 to 105 | Cc1ccccc1NC(=O)Nc1ccc(CC(=O)N2CCN(C(C)C(=O)O)C(=O)C2Cc2ccccc2)cc1 (configuration not stated)
79 | 126 to 128 | CCc1ccccc1OS(=O)(=O)c1ccc(N2CCN(C)C2=O)cc1
80 | 278 | Cc1c2ccccc2c(C)c2cc3c(cc12)C(=O)OC3=O
81 | 82 to 83 | COC(=O)C(C)(C)CCCCCOc1ccc(N2C(=O)c3ccccc3C2=O)cc1

Row | melting point [°C] | SMILES
82 | > 250 | Nc1nc2ccc3cc(Br)c([N+](=O)[O-])cc3c2c(=O)[nH]1
83 | 191 | COC(=O)c1cc(N2CCCC2)c(Oc2ccccc2)c(S(N)(=O)=O)c1
84 | 212 | C=CCN1CCN(c2cc3c(cc2Cl)c(=O)c(C(=O)O)cn3CC)CC1
85 | 118 to 120 | CN(O)C(=O)Cc1ccc2c(c1)C(=O)c1ccccc1CO2
86 | 131 to 133 | Nc1sc2c(c1C(=O)c1ccsc1)CCN(Cc1ccccc1)C2
87 | 84.3 | COC(=O)c1cccc2[nH]c3ccccc3c12
88 | 94 to 96 | COc1ccc(Nc2nc(Nc3cc4c(cc3OC)CNC(CC3CC3)C(=O)N4C)ncc2Cl)c(-n2cccn2)c1 (configuration not stated)
89 | 153 | CCOc1ccc(CNC(=O)n2cc(F)c(=O)[nH]c2=O)cc1OC
90 | 324 to 327 | O=C1c2ccccc2C(=O)N1CCc1c[nH]c(=O)[nH]c1=O
91 | 128 | CCC1(COc2ccc(C(=O)O)cc2)COC1
92 | 195 to 196 | COc1cc2c(cc1OCc1ccccc1)CCN(C(=O)c1cccc(C#N)c1)C2=O
93 | 120 to 123 | CCSc1ncccc1C(=O)N1CCC(=O)c2ccc(Cl)cc21
94 | 75 to 77 | COc1ccccc1NC1CN(C(c2ccccc2)c2ccccc2)C1
95 | 91 to 93 | CCCc1c(OCCCCCCc2cccc(OCCCCCCC(=O)O)c2CCC(=O)O)ccc2c1OCCC2=O
96 | 326 to 328 | CC(=O)Nc1cccc(-c2ccc(C#N)c(=O)[nH]2)c1
97 | 75 to 79 | CCN1CC(CCCl)N(C)c2ccccc2C1=O (configuration not stated)
98 | 200 to 201 | COCc1ccc(-c2ccc3nnn(Cc4ccc5ncccc5c4)c3n2)cc1F
99 | 74.5 to 75 | CCOC(=O)C=Cc1ccc(OCc2ccccc2)c(OC)c1
100 | 177 to 180 | O=c1cc(-c2ccc(O)cc2)oc2ccccc12
101 | 197 to 199 | CCOC(=O)NNc1nc2ccc(-n3ccnc3)cc2n(OCc2ccccc2)c1=O
102 | 178 to 179 | CCCn1c(COCC)nc2c(N)nc3ccc(OCC4CCCO4)cc3c21 (configuration not stated)
